Several values for one entry are separate records, joined by “and”; a condition that tells them apart may be missing. Identical values can stand only once. Like-named read-outs stand apart in the source and are kept apart here.
Columns and labels:
[1] = system: HCT116 p53KO; assay: Cell growth inhibition (WST-8), HCT116 p53KO; assay type: cell-based;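 note: cells in 96-well plates exposed to compound for 4 days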
Procedure: (§1) Cells were seeded in 96-well flat bottom cell culture plates at a density of 3-4x 10^3 cells/well and incubated in the presence of compounds for 4 days.

[2] = system: PC-3 (p53 null); assay: Cell growth inhibition (WST-8, 4 days), PC3; assay type: cell-based, human;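 note: PC-3 is a human prostate cancer line, cultured with test compound throughout the 4-day growth assay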
Procedure: (§2) To test these predictions, a cell growth assay was developed using human prostate cancer LNCaP (p53 wild-type) and PC-3 (p53 null) cell lines. The toxic effects of compounds of the invention were tested.
as §1

[3] = molecular target: MDM2 protein (Homo sapiens, UniProt Q00987); assay: MDM2 binding assay, competition with tracer F-6 (IC50 and calculated Ki); conditions: MDM2 [10 nM]; F-6 [1 nM]; individual determinations, values not in parentheses
Sequence of MDM2 protein (Q00987 whole entry, species assumed): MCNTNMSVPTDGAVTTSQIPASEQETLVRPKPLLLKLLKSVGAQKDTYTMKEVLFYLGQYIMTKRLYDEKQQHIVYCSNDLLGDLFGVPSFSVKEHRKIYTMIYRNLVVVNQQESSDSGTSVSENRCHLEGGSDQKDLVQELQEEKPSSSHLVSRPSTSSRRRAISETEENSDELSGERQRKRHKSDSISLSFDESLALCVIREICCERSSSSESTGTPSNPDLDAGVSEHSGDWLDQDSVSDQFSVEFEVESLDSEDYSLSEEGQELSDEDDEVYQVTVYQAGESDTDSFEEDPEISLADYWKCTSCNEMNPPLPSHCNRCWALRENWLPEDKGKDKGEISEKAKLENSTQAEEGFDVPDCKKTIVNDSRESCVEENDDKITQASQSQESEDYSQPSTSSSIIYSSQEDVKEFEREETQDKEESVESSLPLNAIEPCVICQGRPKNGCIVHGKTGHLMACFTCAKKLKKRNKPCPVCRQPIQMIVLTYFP

[4] = system: HCT116 p53WT; assay: Cell growth inhibition (WST-8), HCT116 p53WT; assay type: cell-based; conditions: individual determinations and mean ± SD lines;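 note: compound exposure of the cells lasted 4 days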
Procedure: as §1

[5] = system: LNCaP (p53 wild-type); assay: Cell growth inhibition (WST-8, 4 days), LNCaP; assay type: cell-based, human;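 note: LNCaP human prostate cancer cells exposed to compound for 4 days, with inhibition of cell growth as the measured effect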
Procedure: as §2, §1

[6] = HCT116 p53KO, individual determinations and mean ± SD lines, read-out: HCT116 p53KO IC50
[7] = PC3, p53 null, individual determinations and mean ± SD lines, read-out: PC3 IC50
[8] = HCT116 p53WT, read-out: HCT116 p53WT IC50
[9] = read-out: HCT116 p53KO IC50, HCT116 p53KO, individual determinations and mean ± SD lines
[10] = read-out: LNCaP IC50, individual determinations and mean ± SD lines
[11] = read-out: PC3 IC50, PC3, p53 null, individual determinations and mean ± SD lines
[12] = Homo sapiens, HCT-116, read-out: HCT116 p53WT IC50 (µM), HCT116 p53WT
[13] = read-out: HCT116 p53WT IC50, HCT116 p53WT
[14] = individual determinations and mean ± SD lines, read-out: LNCaP IC50
[15] = Homo sapiens, HCT-116, HCT116 p53KO, individual determinations and mean ± SD lines, read-out: HCT116 p53KO IC50
[16] = Homo sapiens, 96 h, individual determinations and mean ± SD lines, read-out: LNCaP IC50
[17] = Homo sapiens, HCT-116, HCT116 p53WT, read-out: HCT116 p53WT IC50
[18] = Homo sapiens, 96 h, PC3, p53 null, individual determinations and mean ± SD lines, read-out: PC3 IC50

Molecule | IC50 [1, 6] | IC50 [2, 7] | IC50 [4, 8] | IC50 [5, 14] | other results
6-CHLORO-4'-(3-CHLORO-4-FLUOROPHENYL)-2'-(2,2-DIMETHYL-PROPYL)-5-FLUORO-2-OXO-1'-OXY-1,2,4',5'-TETRAHYDRO-SPIRO[INDOLE-3,3'-PYRROLE]-5'-CARBOXYLIC ACID (3,4-DIHYDROXY-BUTYL)-AMIDE [MI-319-14] | > 30 µM | 40.1 µM and 40.2 µM and > 30 µM | 8.01 µM and 9.27 µM and 5.74 µM and 7.67 µM |  | IC50 [3]: 2.04 µM and 1.66 µM
CC(C)(C)C[C@H]1N[C@@H](C(=O)NCCC2CCC(O)C2)[C@H](c2ccc(F)c(Cl)c2)[C@@]12C(=O)Nc1cc(Cl)c(F)cc12 (single isomer, unassigned) [MDM2-319-6, 6-CHLORO-4'-(3-CHLORO-4-FLUOROPHENYL)-2'-(2,2-DIMETHYL-PROPYL)-5-FLUORO-2-OXO-1,2-DIHYDRO-SPIRO[INDOLE-3,3'-PYRROLIDINE]-5'-CARBOXYLIC ACID [2-(3-HYDROXY-CYCLOPENTYL)-ETHYL)-AMIDE] |  |  |  |  | IC50 ([1]; Homo sapiens, HCT-116, read-out: HCT116 p53KO IC50 (µM), HCT116 p53KO, individual determinations and mean ± SD lines): 14.3 µM; IC50 [1, 9]: 16.1 µM and 14.6 µM and 15 µM; IC50 [5, 10]: 2.58 µM and 1.22 µM and 1.93 µM and 1.91 µM; IC50 ([2]; Homo sapiens, 96 h, read-out: PC3 IC50 (µM), PC3, p53 null, individual determinations and mean ± SD lines): 21.4 µM; IC50 [2, 11]: 20.8 µM and 14.2 µM and 18.7 µM; IC50 [4, 12]: 5.45 µM; IC50 [4, 13]: 7.41 µM and 5.96 µM and 6.26 µM
CC(C)(C)C[C@H]1N[C@@H](C(=O)NCC[C@H](O)CO)[C@H](c2ccc(F)c(Cl)c2)[C@@]12C(=O)Nc1cc(Cl)c(F)cc12 [MDM2-319, (2'R,3S,3"S,4'R,5'R) 6-CHLORO-4'-(3-CHLORO-4-FLUORO-PHENYL)-2'-(2,2-DIMETHYL-PROPYL)-5-FLUORO-2-OXO-1,2-DIHYDRO-SPIRO[INDOLE-3,3'-PYRROLIDINE]-5'-CARBOXYLIC ACID (3,4-DIHYDROXY-BUTYL)-AMIDE] |  |  | 0.717 µM and 0.615 µM and 0.247 µM and 0.52 µM | 0.274 µM and 0.184 µM and 0.229 µM | IC50 ([1]; read-out: HCT116 p53KO IC50): 11.8 µM and 12.2 µM and 14.2 µM
O=C(NCC[C@H](O)CO)[C@@H]1N[C@H](CC2CCCC2)[C@]2(C(=O)Nc3cc(Cl)c(F)cc32)[C@H]1c1ccc(F)c(Cl)c1 [MDM2-319-1, 6-CHLORO-4'-(3-CHLORO-4-FLUOROPHENYL)-2'-CYCLOPENTYLMETHYL-5-FLUORO-2-OXO-1,2-DIHYDRO-SPIRO[INDOLE-3,3'-PYRROLIDINE]-5'-CARBOXYLIC ACID (3,4-DIHYDROXY-BUTYL)-AMIDE] | 10.4 µM |  | 1.36 µM | 0.36 µM | IC50 [1, 15]: 12.7 µM; IC50 [5, 16]: 0.261 µM; IC50 [4, 17]: 0.908 µM
O=C(NCC[C@H](O)CO)[C@@H]1N[C@H](C2CCCCC2)[C@]2(C(=O)Nc3cc(Cl)c(F)cc32)[C@H]1c1ccc(F)c(Cl)c1 [MDM2-319-4, 6-CHLORO-4'-(3-CHLORO-4-FLUOROPHENYL)-2'-CYCLOHEXYL-5-FLUORO-2-OXO-1,2-DIHYDRO-SPIRO[INDOLE-3,3'-PYRROLIDINE]-5'-CARBOXYLIC ACID (3,4-DIHYDROXY-BUTYL)-AMIDE] | 13.1 µM and 26.5 µM and 13.4 µM and 17.6 µM | 23.4 µM and 25.6 µM and 22.5 µM | 5.03 µM and 5.8 µM and 2.41 µM and 4.41 µM | 1.29 µM and 0.89 µM and 1.21 µM | IC50 [5, 16]: 1.42 µM; IC50 [2, 18]: 18.5 µM
CC(C)(C)C[C@H]1N[C@@H](C(=O)NCCC2CCC(O)C2)[C@H](c2ccc(F)c(Cl)c2)[C@@]12C(=O)Nc1cc(Cl)c(F)cc12 (stereo partly shown) [MDM2-319-5] | 5.39 µM and 8.4 µM and 8.1 µM | 5.55 µM and 8.71 µM and 7.91 µM | 1.29 µM and 1.5 µM and 1.23 µM | 0.465 µM and 0.634 µM and 0.56 µM | 
COC(C)(C)C[C@H]1N[C@@H](C(=O)NCC[C@H](O)CO)[C@H](c2ccc(F)c(Cl)c2)[C@@]12C(=O)Nc1cc(Cl)c(F)cc12 [MI-319-7] |  | 34.3 µM | 7.95 µM | 1.92 µM | 
O=C(NCC[C@H](O)CO)[C@@H]1N[C@H](C2CCCC2)[C@]2(C(=O)Nc3cc(Cl)c(F)cc32)[C@H]1c1ccc(F)c(Cl)c1 [MI-319-8, 6-CHLORO-4'-(3-CHLORO-4-FLUOROPHENYL)-2'-CYCLOPENTYL-5-FLUORO-2-OXO-1,2-DIHYDRO-SPIRO[INDOLE-3,3'-PYRROLIDINE]-5'-CARBOXYLIC ACID (3,4-DIHYDROXY-BUTYL)-AMIDE] | 25.5 µM and 22.7 µM and 26.3 µM | 20.7 µM and 18.4 µM and 23.3 µM | 4.73 µM and 2.74 µM and 3.86 µM | 0.963 µM and 0.893 µM and 0.662 µM and 1.46 µM | IC50 [1, 15]: 30.9 µM; IC50 [2, 18]: 30.7 µM; IC50 [4, 17]: 4.11 µM
CN1CCN(C(=O)[C@@H]2N[C@H](CC(C)(C)C)[C@]3(C(=O)Nc4cc(Cl)c(F)cc43)[C@H]2c2ccc(F)c(Cl)c2)CC1 [MI-319-9] |  |  |  |  | IC50 [1, 9]: 9.71 µM and 8.19 µM and 4.52 µM and 7.47 µM; IC50 [5, 10]: 5 µM and 2.46 µM; IC50 [4, 12]: 7.48 µM; IC50 [4, 13]: 9.2 µM and 4.63 µM and 7.1 µM
CC(=O)N1[C@@H](C(=O)NCC[C@H](O)CO)[C@H](c2ccc(F)c(Cl)c2)[C@@]2(C(=O)Nc3cc(Cl)c(F)cc32)[C@H]1CC(C)(C)C [MI-319-13, 1'-ACETYL-6-CHLORO-4'-(3-CHLORO-4-FLUOROPHENYL)-2'-(2,2-DIMETHYLPROPYL)-5-FLUORO-2-OXO-1,2-DIHYDRO-SPIRO[INDOLE-3,3'-PYRROLIDINE]-5'-CARBOXYLIC ACID (3,4-DIHYDROXY-BUTYL)-AMIDE] |  |  |  |  | IC50 [5, 10]: 3.66 µM and 2.32 µM and 4.85 µM and 3.6 µM; IC50 [4, 13]: 3.23 µM and 6.37 µM and 11 µM and 6.85 µM
CC(C)(C)C[C@H]1N[C@@H](C(=O)NCCn2ccnc2)[C@H](c2ccc(F)c(Cl)c2)[C@@]12C(=O)Nc1cc(Cl)c(F)cc12 [MI-319-17, 6-CHLORO-4'-(3-CHLORO-4-FLUOROPHENYL)-2'-(2,2-DIMETHYL-PROPYL)-5-FLUORO-2-OXO-1,2-DIHYDRO-SPIRO[INDOLE-3,3'-PYRROLIDINE]-5'-CARBOXYLIC ACID (2-IMIDAZOL-1-YL-ETHYL)-AMIDE] | 22.3 µM and 25.1 µM | 22 µM and 23.6 µM | 3.79 µM and 3.15 µM | 1.55 µM and 1.51 µM | IC50 [1, 15]: 25.1 µM; IC50 [5, 16]: 1.1 µM; IC50 [2, 18]: 14 µM; IC50 [4, 17]: 2.1 µM
CC(C)(C)C[C@H]1N[C@@H](C(=O)NC[C@H](O)[C@H](O)CO)[C@H](c2ccc(F)c(Cl)c2)[C@@]12C(=O)Nc1cc(Cl)c(F)cc12 [MI-319-19, 6-CHLORO-4'-(3-CHLORO-4-FLUOROPHENYL)-2'-(2,2-DIMETHYL-PROPYL)-5-FLUORO-2-OXO-1,2-DIHYDRO-SPIRO[INDOLE-3,3'-PYRROLIDINE]-5'-CARBOXYLIC ACID (2,3,4-TRIHYDROXY-BUTYL)-AMIDE] | > 30 µM and 77.6 µM | > 30 µM and 41.6 µM | 2.68 µM and 5.98 µM and 4.6 µM | 2.4 µM and 1.2 µM | IC50 [5, 16]: 1.24 µM; IC50 [2, 18]: 30.7 µM
CC(C)(C)C[C@H]1N[C@@H](C(=O)NCCNC(=N)N)[C@H](c2ccc(F)c(Cl)c2)[C@@]12C(=O)Nc1cc(Cl)c(F)cc12 [MI-319-20, 6-CHLORO-4'-(3-CHLORO-4-FLUOROPHENYL)-2'-(2,2-DIMETHYL-PROPYL)-5-FLUORO-2-OXO-1,2-DIHYDRO-SPIRO[INDOLE-3,3'-PYRROLIDINE]-5'-CARBOXYLIC ACID (2-GUANIDINO-ETHYL)-AMIDE] |  |  |  |  | IC50 [1, 9]: > 100 µM; IC50 [2, 11]: > 30 µM and 66.1 µM; IC50 [4, 13]: > 30 µM and 93.5 µM
CC(C)(C)C[C@H]1N[C@@H](C(=O)NCCc2ncc[nH]2)[C@H](c2cccc(Cl)c2)[C@@]12C(=O)Nc1cc(Cl)c(F)cc12 [MI-319-21] | 13.2 µM | 14.1 µM | 3.88 µM | 1.84 µM | 

From patent EP2063887B1, “NEW SMALL MOLECULE INHIBITORS OF MDM2 AND THE USES THEREOF” (priority 2006, dated 2008)
